We go through ten molecules from US12264134B2 (Merck Sharp & Dohme LLC, priority 2018, dated 2025).

The target of assay [1] is T1, IDO1 (Homo sapiens, UniProt P14902). Briefly: IDO1 Cellular Assay in HeLa Cells Stimulated with IFNγ. It counts as cell-based. The settings on record: read-out: HeLa Cell Potency, IC50.
The target of assay [2] is T1, IDO1. Briefly: IDO1 Human Whole blood Assay. It counts as cell-based. On the set-up: Human whole blood was drawn in sodium heparin coated tubes from healthy internal donors; from tissue; host or cells: human whole blood from healthy donors, stimulated with LPS and IFNγ. As to conditions: LPS and IFNγ stimulated, 18 h, read-out: Human Whole Blood Potency, IC50. How it is done: IDO1Human Whole blood Assay
Compounds to be tested were serially diluted in ten 3-fold steps in DMSO starting from 10 mM. 3 μL of compound dilutions or DMSO alone were then dispensed from the dilution plate into a polypropylene 96-well assay plate containing 97 μL of RPMI medium using an Echo 555 acoustic liquid handler (Labcyte). LPS and IFNγ was prepared in RPMI medium to a 10× of final conc. (1000 ng/mL), final concentration is 100 ng/mL.
Human whole blood was drawn in sodium heparin coated tubes from healthy internal donors. 240 μL of blood was transferred to each of the wells of a v-bottom 96 well plate. 30 μL of compound was transferred from intermediate dilution plate, and incubated for 15 min. 30 μL from stimulants was then transferred to blood and mixed thoroughly. Plate was covered with breathable membrane and incubated at 37° C. for overnight (18 h).
On day 2, isotope labeled standard solutions of kynurenine and tryptophan was made in water at 10× concentration and 30 μL was added to the blood at 3 μM final concentration. The assay plates were centrifuged at 300×G for 10 min with no brake to separate plasma from red blood cells. 60 μL of plasma samples was removed without disturbing red blood cells. Plasma was diluted with RPMI in 1:1 ratio and proteins were precipitated out with two volumes of Acetonitrile. The plates were centrifuged at 4000×G for 60 min. 20 μL of supernatant was carefully transferred to a 384 well plate containing 40 μL of 0.1% formic acid in water and analyzed by LC/MS/MS.
LC/MS/MS analyses were performed using Thermo Fisher's LX4-TSQ Quantum Ultra system. This system consists of four Agilent binary high-performance liquid chromatography (HPLC) pumps and a TSQ Quantum Ultra triple quadrupole MS/MS instrument. For each sample, 5 μL were injected onto an Atlantis T3 column (2.1 mm×150 mm, 3 μm particle size) from Waters. The mobile phase gradient pumped at 0.8 mL/min was used to elute the analytes from the column at 25° C. The elution started at 0% B increasing linearly to 25% B at 6.5 min, holding at 25% for 1 min, re-equilibrating to 10 min. Mobile phase A consisted of 0.1% formic acid in water. Mobile phase B consisted of 0.1% of formic acid in acetonitrile. Data were acquired in positive mode using a HESI interface. The operational parameters for the TSQ Quantum Ultra instrument were a spray voltage of 4000 V, capillary temperature of 380° C., vaporizer temperature 400° C., shealth gas 60 arbitrary units, Aux gas 20 arbitrary units, tube lens 85 and collision gas 1.2 mTorr. SRM chromatograms of kynurenine (Q1: 209.2>Q3:94.0) and internal standard (Q1: 215.3>Q3:98.2) were collected for 90 sec. The peak area was integrated by Xcalibur Quan software. The ratios between the kynurenine generated in the reaction and 2D6-Kynurenine spiked-in internal standard were used to generate percentage inhibition and IC50 values. Compounds were titrated and IC50's were calculated by 4 parameter sigmoidal curve fitting formula.

T1 sequence (P14902 whole entry): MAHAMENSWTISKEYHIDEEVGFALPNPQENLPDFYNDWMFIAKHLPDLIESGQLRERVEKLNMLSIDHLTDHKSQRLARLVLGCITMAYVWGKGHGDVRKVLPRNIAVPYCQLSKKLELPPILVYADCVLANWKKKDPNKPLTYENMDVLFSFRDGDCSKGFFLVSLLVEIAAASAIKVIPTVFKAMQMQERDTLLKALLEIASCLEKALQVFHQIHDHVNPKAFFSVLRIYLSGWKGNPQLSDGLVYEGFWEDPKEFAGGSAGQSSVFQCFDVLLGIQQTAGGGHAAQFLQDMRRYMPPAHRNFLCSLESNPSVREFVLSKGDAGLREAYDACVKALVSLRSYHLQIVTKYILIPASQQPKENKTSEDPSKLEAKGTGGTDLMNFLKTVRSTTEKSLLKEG

What is called IC50 is the midpoint of a concentration-inhibition curve. On to `Cc1cccc(N2CCN(C(=O)Cn3nc(C(=O)N4CCC5(CO)CC4C5)c4c3CCC4)CC2)c1C` [Example 297, 1-[4-(2,3-dimethylphenyl)piperazin-1-yl]-2-{3-[5-(hydroxymethyl)-2-azabicyclo[3.1.1]heptane-2-carbonyl]-5,6-dihydrocyclopenta[c]pyrazol-1(4H)-yl}ethan-1-one], for which the IC50 on IDO1 [1] stood at 11.3 nM; on IDO1 [2], 1220 nM.

On to `Cc1cccc(N2CCN(C(=O)Cn3nc(C(=O)N4CCC(O)CC4)c4c3CCCC4)CC2)c1C` [Example 466, 1-(4-(2,3-dimethylphenyl)piperazin-1-yl)-2-(3-(4-hydroxy-piperidine-1-carbonyl)-4,5,6,7-tetrahydro-1H-indazol-1-yl)ethanone], for which the IC50 on IDO1 [1] is 1.69 nM; at IDO1 [2] it was 233 nM.

In the case of `Cc1cccc(N2CCN(C(=O)Cn3nc(C(=O)N4CCN(CC(F)F)CC4)c4c3CCC4)CC2)c1C` [Example 157, 2-{3-[4-(2,2-difluoroethyl)piperazine-1-carbonyl]-5,6-dihydrocyclopenta[c]pyrazol-1(4H)-yl}-1-[4-(2,3-dimethylphenyl)piperazin-1-yl]ethan-1-one], the half-inhibitory concentration (IC50) on IDO1 [1] turned out to be 3.34 nM; on IDO1 [2], 196 nM.

With `Cc1c(F)cccc1N1CCN(C(=O)Cn2nc(C(=O)N3CCC(OCCO)CC3)c3c2CCC3)CC1` [Example 456, 1-(4-(3-fluoro-2-methylphenyl)piperazin-1-yl)-2-(3-(4-(2-hydroxyethoxy)piperidine-1-carbonyl)-5,6-dihydrocyclopenta[c]pyrazol-1(4H)-yl) ethanone], the IC50 on IDO1 [1] amounted to 21.4 nM; at IDO1 [2] it was 102 nM.

For `Cc1cccc(N2CCN(C(=O)Cn3nc(C(=O)N4CCCC(CO)C4)c4c3CCC4)CC2)c1C` (centres unmarked) [Example 147, 1-[4-(2,3-dimethylphenyl)piperazin-1-yl]-2-{3-[3-(hydroxymethyl)piperidine-1-carbonyl]-5,6-dihydrocyclopenta[c]pyrazol-1(4H)-yl}ethan-1-one], the 50% inhibitory concentration (IC50) at IDO1 [1] was 2.84 nM; on IDO1 [2], 607 nM.

Regarding `Cc1cccc(N2CCN(C(=O)Cn3nc(C(=O)N4CCN(C5COC5)CC4)c4c3CCC4)CC2)c1C` [Example 168, 1-[4-(2,3-dimethylphenyl)piperazin-1-yl]-2-{3-[4-(oxetan-3-yl)piperazine-1-carbonyl]-5,6-dihydrocyclopenta[c]pyrazol-1(4H)-yl}ethan-1-one], the results for the half-inhibitory concentration (IC50) at IDO1 [1] and at IDO1 [2] were 5.88 nM and 441 nM, respectively.

In the case of `Cc1cccc(N2CCN(C(=O)Cn3nc(C(=O)N4CC[C@@H](O)C[C@@H]4C)c4c3C[C@H]3C[C@@H]43)CC2)c1C` [Example 290, 1-[4-(2,3-dimethylphenyl)piperazin-1-yl]-2-{(3bR,4aR)-3-[(2S,4R)-4-hydroxy-2-methylpiperidine-1-carbonyl]-3b,4,4a,5-tetrahydro-1H-cyclopropa[3,4]cyclopenta[1,2-c]pyrazol-1-yl}ethan-1-one], the IC50 on IDO1 [1] was 2.03 nM; on IDO1 [2], 771 nM.

For `Cc1cccc(N2CCN(C(=O)Cn3nc(C(=O)N4CCC(O)(CF)CC4)c4c3C[C@H]3C[C@@H]43)CC2)c1C` [Example 276, 1-[4-(2,3-dimethylphenyl)piperazin-1-yl]-2-{(3bR,4aR)-3-[4-(fluoromethyl)-4-hydroxypiperidine-1-carbonyl]-3b,4,4a,5-tetrahydro-1H-cyclopropa[3,4]cyclopenta[1,2-c]pyrazol-1-yl}ethan-1-one], the values for the IC50 on IDO1 [1] and on IDO1 [2] were 2.03 nM and 109 nM, respectively.

In the case of `Cc1cccc(N2CCN(C(=O)Cn3nc(C(=O)N4CCC(C)(CO)CC4)c4c3CCC4)CC2)c1C` [Example 161, 1-[4-(2,3-dimethylphenyl)piperazin-1-yl]-2-{3-[4-(hydroxymethyl)-4-methylpiperidine-1-carbonyl]-5,6-dihydrocyclopenta[c]pyrazol-1(4H)-yl}ethan-1-one], the 50% inhibitory concentration (IC50) amounted to 2.42 nM on IDO1 [1] and 113 nM at IDO1 [2].

As for `Cc1c(Cl)cccc1N1CCN(C(=O)Cn2nc(C(=O)N3CC[C@H](O)[C@H](F)C3)c3c2CCC(F)(F)C3)CC1` [Example 381], the results for the concentration for half-maximal inhibition (IC50) at IDO1 [1] and on IDO1 [2] were 4.85 nM and 598 nM, respectively.
